Test: Fe-porphyrin catalyzed oxidation of DHTz
Conditions: DHTz 35 uM in PBS pH 7.4, air
Description: (§1) 4-Oxo-4-((6-(6-(pyridin-2-yl)-1,4-dihydro-1,2,4,5-tetrazin-3-yl)pyridin-3-yl)amino)butanoic acid (35 uM in PBS (pH 7.4), 2 mL) was placed in a 1 cm×1 cm cuvette with a strongly stirred magnetic stir bar in an atmosphere of air. A solution of Fe-TMPyP (50 uM in PBS (pH 7.4), 20 uL) was added to the cuvette. The reaction was monitored by a UV-Vis spectrometer at 280 nm and 325 nm.
as §1, with “Fe-TPPS” for “Fe-TMPyP”

O=C(O)CCC(=O)Nc1ccc(C2=NNC(c3ccccn3)=NN2)nc1 [3a, 4-oxo-4-((6-(6-(pyridin-2-yl)-1,4-dihydro-1,2,4,5-tetrazin-3-yl)pyridin-3-yl)amino)butanoic Acid]
time to 50% completion of oxidation (Fe-TMPyP): ≤ 1 min
time to 95% completion of oxidation (Fe-TMPyP): ≤ 5 min
time to 50% completion of oxidation (Fe-TPPS): ≤ 5 min

From patent publication US11485987B2, “Methods for inducing bioorthogonal reactivity” (University of Delaware, priority 2015, dated 2022)
